Laboratory results taken from publication PMC11091879, “Inhibitors of the Thioesterase Activity of Mycobacterium tuberculosis Pks13 Discovered Using DNA-Encoded Chemical Library Screening” (ACS Infectious Diseases, 2024).
Converted amounts (≈) assume the structure as drawn. Read-outs that look alike come from different tables or passages of the source.

Experiments:
Pks13-TE [1] = biological target: T1, Pks13-TE (Mycobacterium tuberculosis, UniProt I6X8D2); assay: biochemical; type: binding
WT H37Rv = assay: microbe, parasite or virus in culture; type: cell-based, Mycobacterium tuberculosis; details: for MIC: Mycobacterium tuberculosis, H37RV
[2] = system: pks13-TetON -ATc (hypomorph); type: cell-based, Mycobacterium tuberculosis
[3] = system: pks13-TetON +ATc (Pks13-hypermorph); type: cell-based, Mycobacterium tuberculosis
Pks13-TE [4] = biological target: T1, Pks13-TE; assay: biochemical
Mtb = details: in vivo; cited from earlier work
Mtb H37Rv = system: Mtb H37Rv; design: species or system Mycobacterium tuberculosis; details: in vivo, po, 25 mg/kg
[5] = read-out: MIC (whole cell activity)

T1 sequence (I6X8D2 1451-1733 limits assumed): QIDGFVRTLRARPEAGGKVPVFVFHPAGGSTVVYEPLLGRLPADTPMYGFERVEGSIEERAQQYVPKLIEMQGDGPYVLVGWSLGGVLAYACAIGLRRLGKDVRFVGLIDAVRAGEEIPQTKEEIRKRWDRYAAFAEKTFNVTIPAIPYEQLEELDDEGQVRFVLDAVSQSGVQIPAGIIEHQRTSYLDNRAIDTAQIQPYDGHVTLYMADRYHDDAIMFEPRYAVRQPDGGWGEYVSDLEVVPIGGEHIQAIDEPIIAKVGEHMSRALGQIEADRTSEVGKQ

SMILES	IC50 (Pks13-TE [1]; read-out: IC50) [µM]	Hypomorph MIC fold shift (WT/-ATc) [2] [fold]	Hypermorph MIC fold shift (+ATc/WT) [3] [fold]	MIC (WT H37Rv; read-out: WT H37Rv MIC) [µM]	MIC (WT H37Rv; read-out: WT H37Rv MIC (uM)) [µM]	further results
COc1ccc(F)cc1-c1ccc(-c2cn(Cc3ccncc3)nn2)cn1 [X22307]	> 10	–	–	–	–	WT H37Rv MIC (WT H37Rv): > 125 µM
COc1ccc(OC)c(-c2ccc(-c3cn(CCc4ccc(S(=O)(=O)N(C)C)cc4)nn3)cn2)c1 [X21545]	0.53	3.2	2.8	1.3 (≈ 0.642 µg/mL)	–	–
Cn1ncc2cc(CCn3cc(-c4ccc(-c5cc(C(F)(F)F)ccc5F)nc4)nn3)ccc21 [X22311]	0.77	–	–	> 125	–	–
COc1ccc(OC)c(-c2ccc(-n3cc(C4CN(c5ccc(C(=O)N(C)C)cc5)C4)nn3)cn2)c1 [X23436]	0.37	–	–	–	–	–
Cc1cccc2cc(C(=O)N3CCN(C(=O)C4CCN(c5nccc(C(=O)NCc6ccccc6)n5)CC4)CC3)cnc12 [X21424]	–	3.0	5.8	–	2.6 (≈ 1.5 µg/mL)	IC50 (Pks13-TE [1]; IC50 (uM)): 0.39 µM
COc1ccc(Cl)c(-c2ccc(-c3cn(CCc4ccc(C(=O)N(C)C)cc4)nn3)cn2)c1 [X21464]	–	2.4	3.8	–	5.5 (≈ 2.54 µg/mL)	IC50 (Pks13-TE [1]; IC50 (uM)): 0.38 µM
CC(=O)N1CCN(C(=O)C2CCN(c3nc(C)cc(C(=O)NCc4ccccc4)n3)CC2)CC1 [X13045]	–	1.5	–	–	390 (≈ 181 µg/mL)	IC50 (Pks13-TE [1]; IC50 (uM)): 15.1 µM; IC50 (Pks13-TE [4]): 15 µM; MIC (WT H37Rv; read-out: MIC (Mtb inhibition)): 390 µM (≈ 181 µg/mL); MIC (WT H37Rv; [5]): 390 µM (≈ 181 µg/mL)
Cc1cccc(-c2ccc(-c3cn(CCc4ccc(C(=O)N(C)C)cc4)nn3)cn2)c1C [X21478]	–	1.9	17	–	12 (≈ 5.11 µg/mL)	IC50 (Pks13-TE [1]; IC50 (uM)): 0.47 µM
Cc1cc(CNC(=O)c2cc(C)nc(N3CCC(C(=O)N4CCN(C(=O)c5ccc6nc(C)ccc6c5)CC4)CC3)n2)cc(C)n1 [X22277]	0.53	2.6	1.8	0.54 (≈ 0.335 µg/mL)	–	–
Cc1cc(C(=O)NCc2ccccc2)nc(N2CCC(C(=O)N3CCN(C(=O)c4ccc5nc(C)sc5c4)CC3)CC2)n1 [X21408]	0.46	1.5	5.4	–	–	WT H37Rv MIC (WT H37Rv): 0.10 µM
Cc1ccc(F)cc1-c1ccc(-c2cn(CCc3ccc4c(cnn4C)c3)nn2)cn1 [X22309]	0.62	–	–	> 125	–	–
COc1ccc(F)cc1-c1ccc(-c2cn(C3CN(c4ccc(C(=O)N(C)C)cc4)C3)nn2)cn1 [X23488]	0.62	–	–	–	–	–
Cc1cc(C(=O)NCc2ccccc2)nc(N2CC(C(=O)N3CCN(C(=O)c4ccc5nc(C)ccc5c4)CC3)C2)n1 [X22327]	0.56	3.1	3.6	1.3 (≈ 0.733 µg/mL)	–	–
COc1ccc(OC)c(-c2ccc(-c3cn(CCc4ccc5c(cnn5C)c4)nn3)cn2)c1 [X21543]	0.49	3.4	1.7	0.35 (≈ 0.154 µg/mL)	–	–
COc1ccc(OC)c(-c2ncc(-c3cn(CCc4ccc(C(=O)N(C)C)cc4)nn3)cc2C)c1 [X21499]	–	1.6	–	–	18 (≈ 8.49 µg/mL)	IC50 (Pks13-TE [1]; IC50 (uM)): 0.58 µM
Cc1cc(C(=O)NCc2ccccc2)nc(N2CCC(C(=O)N3CCN(C(=O)c4ccc5nc(C)ccc5c4)CC3)CC2)n1 [X22275]	0.62	2.3	2.7	0.048 (≈ 0.0284 µg/mL)	–	–
COc1ccc(OC)c(-c2ccc(-c3cn(CCc4ccncc4)nn3)cn2)c1 [X21498]	0.37	1.5	2.7	–	–	WT H37Rv MIC (WT H37Rv): 0.26 µM
COc1ccc(Cl)cc1-c1ccc(-c2cn(CCc3ccc(C(=O)N(C)C)cc3)nn2)cn1 [X21434]	–	2.4	5.4	–	1.1 (≈ 0.508 µg/mL)	IC50 (Pks13-TE [1]; IC50 (uM)): 0.46 µM
NNC(=O)c1ccncc1 [INH, Isoniazid, reference compound]	–	–	–	–	–	reduction of the burden (Mtb): 1 log10; reduction in CFU (lung) (Mtb H37Rv): ~1.5 log10
Cc1cc(C(=O)NCc2ccncc2)nc(N2CCC(C(=O)N3CCN(C(=O)c4cnc5c(C)cccc5c4)CC3)CC2)n1 [X21429]	–	2.3	3.9	–	0.24 (≈ 0.142 µg/mL)	IC50 (Pks13-TE [1]; IC50 (uM)): 0.42 µM; MIC (WT H37Rv; [5]): 0.24 µM (≈ 0.142 µg/mL)
Cc1cccc2cc(-c3cn(CCc4ccc(C(=O)N(C)C)cc4)nn3)cnc12 [X21497]	> 10	–	–	–	–	WT H37Rv MIC (WT H37Rv): > 125 µM
COc1ccc(OC)c(-n2ncc(-c3cn(CCc4ccc(C(=O)N(C)C)cc4)nn3)c2C)c1 [X21558]	> 20	–	–	–	–	–
COc1ccc(OC)c(-c2ccc(-c3cn(CCc4ccc(-c5nccn5C)cc4)nn3)cn2)c1 [X21542]	0.5	1.9	2.7	0.17 (≈ 0.0793 µg/mL)	–	–

SMILES	IC50 (Pks13-TE [1]; read-out: IC50) [µM]	Hypomorph MIC fold shift (WT/-ATc) [2] [fold]	Hypermorph MIC fold shift (+ATc/WT) [3] [fold]	MIC (WT H37Rv; read-out: WT H37Rv MIC) [µM]	MIC (WT H37Rv; read-out: WT H37Rv MIC (uM)) [µM]	further results
CNC(=O)c1cc(C(C)C)nc(N2CCC(C(=O)N3CCN(C(=O)c4ccc(-n5nc(C)cc5C)nc4)CC3)CC2)n1 [X21426]	0.62	1.5	4.8	13 (≈ 7.46 µg/mL)	–	–
CNC(=O)c1cc(C)nc(N2CCC(C(=O)N3CCCN(C(=O)c4cnn5ccc(OC)cc45)CC3)CC2)n1 [X22280]	> 10	–	–	> 125	–	–
Cc1cc(C(=O)NCc2ccccc2)nc(N2CCC(C(=O)N3CCN(C(=O)c4ccc(-n5nc(C)cc5C)nc4)CC3)CC2)n1 [X22239]	0.64	1.9	3.7	0.066 (≈ 0.041 µg/mL)	–	–
COc1ccc2[nH]c(C(=O)N3CCN(C(=O)C4CCN(c5nc(C)cc(C(=O)NCc6ccccc6)n5)CC4)CC3)cc2c1OC [X20419]	–	1.8	2.5	–	0.044 (≈ 0.0275 µg/mL)	fold improvement in enzyme inhibition (Pks13-TE [1]): 30 fold; IC50 (Pks13-TE [1]; IC50 (uM)): 0.48 µM; MIC (WT H37Rv; read-out: MIC (Mtb inhibition)): 0.04 µM (≈ 0.025 µg/mL)
Cc1cc(C(=O)NCc2ccccc2)nc(N2CCC(C(=O)N3CCN(C(=O)c4cnc5c(C)cccc5c4)CC3)CC2)n1 [X20377]	–	3.5	2.6	–	0.21 (≈ 0.124 µg/mL)	IC50 (Pks13-TE [1]; IC50 (uM)): 0.85 µM; MIC (WT H37Rv; read-out: MIC (Mtb inhibition)): 0.21 µM (≈ 0.124 µg/mL)
COc1ccc(OC)c(-c2ccc(-c3nc(N(C)Cc4ccc(C(=O)N(C)C)cc4)no3)cn2)c1 [X21475]	> 20	–	–	–	–	–
CCC(C)(C)c1ccc(S(=O)(=O)N[C@@H](Cc2ccccc2)[C@@H](O)Cc2nc(N(C)C)no2)cc1 [X20348]	–	–	–	–	> 250	IC50 (Pks13-TE [1]; enzyme potency / IC50): 0.47 µM
Cc1c(-c2cn(CCc3ccc(C(=O)N(C)C)cc3)nn2)cnn1-c1ccccc1F [X21774]	> 10	–	–	> 125	–	–
COc1ccc(OC)c(-c2ccc(-c3cn(CCc4ccc5nn(C)cc5c4)nn3)cn2)c1 [X21544]	0.55	2.7	1.5	0.47 (≈ 0.207 µg/mL)	–	–
COc1ccn2nc(C(=O)N3CCN(C(=O)C4CCN(c5nc(C)cc(C(=O)N6CCCC6)n5)CC4)CC3)cc2c1 [X22276]	> 10	–	–	> 125	–	–
COCC1(CN(C)C(=O)c2ccc(CCn3cc(-c4ccc(-c5cc(OC)ccc5OC)nc4)nn3)cc2)CC1 [X20403]	–	0.88	2.3	–	0.05 (≈ 0.0271 µg/mL)	IC50 (Pks13-TE [1]; IC50 in the TAMRA binding assay): 0.5 µM; IC50 (Pks13-TE [4]): 0.057 µM; MIC (WT H37Rv; read-out: MIC (Mtb inhibition)): 0.05 µM (≈ 0.0271 µg/mL)
Cn1ncc2cc(CCn3cc(-c4ccc(N5CC(F)(F)C5)nc4)nn3)ccc21 [X22317]	> 10	–	–	> 125	–	–
COc1ccc(OC)c(-c2ncc(-c3cn(CCc4ccc(C(=O)N(C)C)cc4)nn3)cn2)c1 [X21435]	–	–	–	–	> 125	IC50 (Pks13-TE [1]; IC50 (uM)): 0.58 µM
Cc1ccccc1-c1ncc(-c2cn(CCc3ccc(C(=O)N(C)C)cc3)nn2)s1 [X21546]	–	1.9	–	–	18 (≈ 7.52 µg/mL)	IC50 (Pks13-TE [1]; IC50 (uM)): 0.37 µM
COc1ccc(OC)c(-c2ccc(-c3cn(C4CCN(c5ccc(C(=O)N(C)C)cc5)C4)nn3)cn2)c1 (centres unmarked) [X23546]	0.65	–	–	–	–	–
COc1ccn2nc(C(=O)N3CCN(C(=O)C4CCN(c5nc(C)cc(C(=O)NCc6ccccc6)n5)CC4)CC3)cc2c1 [X21411]	–	2.1	6.0	–	0.21 (≈ 0.125 µg/mL)	IC50 (Pks13-TE [1]; IC50 (uM)): 0.48 µM
Cn1ncc2cc(CCn3cc(-c4ccc(OCc5ccccc5)nc4)nn3)ccc21 [X22346]	> 10	–	–	–	–	WT H37Rv MIC (WT H37Rv): > 125 µM
CN(C)C(=O)c1ccc(CCn2cc(-c3ccc(-c4ccccc4C(F)(F)F)nc3)nn2)cc1 [X21502]	0.59	–	–	> 125	–	–
COc1ccn2nc(C(=O)N3CCN(C(=O)C4CCN(c5nc(C)cc(C(F)(F)F)n5)CC4)CC3)cc2c1 [X22279]	> 10	–	–	> 125	–	–
Cc1cc(C(=O)NCc2ccccc2)nc(N2CCC(CN3CCN(C(=O)c4cnc5c(C)cccc5c4)CC3)CC2)n1 [X21352]	–	1.7	6.1	–	5.2 (≈ 3 µg/mL)	IC50 (Pks13-TE [1]; IC50 (uM)): 0.46 µM
COc1ccc(OC)c(-c2ccc(-c3cn(C4CN(c5ccc6nn(C)cc6c5)C4)nn3)cn2)c1 [X23479]	0.46	–	–	–	–	–
Cc1cc(C(=O)NCc2ccccc2)nc(N2CCC(C(=O)N3CCN(C(=O)c4cc5c(Cl)cccn5n4)CC3)CC2)n1 [X22324]	0.53	3.3	3.7	–	–	WT H37Rv MIC (WT H37Rv): 0.22 µM
